Source: patent publication US10087416B2, “Culturing pluripotent stem cells” (Agency for Science, Technology and Research, priority 2013, dated 2018)

Experiments:
Format in all cases: cell-based, human
hESCs = assay: Small molecule treatment of hESCs, expression of pluripotency and lineage markers (qPCR); conditions: for Gene expression levels of pluripotency markers NANOG and POU5F1: hESCs treated with individual chemicals for 4 days, FIG. 1C; for Expression level of lineage markers / Expression of NANOG and POU5F1: individual chemicals of combination 22, subcultured onto feeders, harvested after 4 days, FIG. 1F
Protocol: For routine culture of hESCs in TeSR1 (Stem cell technologies), cells were cultured feeder free on matrigel (BD). Cell media was changed daily. The hESCs were subcultured with 1 mg/ml Dispase (Stem cell technologies) every 5-7 days. 3iL hESCs culture medium contains 1 μM of PD0325901 (Sigma), 2 μM of BIO (Sigma), 2 μM of Dorsomorphin (Sigma) and 10 ng/ml human LIF (Millipore) in TeSR1. 3iL media are prepared fresh and stored at 4° C. for not more than 2 weeks. For treatment with 3iL conditions, hESCs cultured in TeSR1 was treated with 3iL 48 hrs post-seeding. The cells are subsequently subcultured on mitomycin C inactivated mouse fibroblast. Cells are dissociated to single cells using TrypLE (Life Technologies). 3iL medium is refreshed daily and cells are subcultured upon confluency. ROCK inhibitor Thiazovivin is added at a final concentration of 1 μM to enhance cell survival for the first few passages. 3iL hESCs used in all the experiments have been cultured for at least 10 passages for adequate conditioning to the new culture condition.
hESCs were dissociated with dispase and treatment starts 48 hrs post seeding. For single chemical and combinatorial chemical treatment, the small molecules are used at the following final concentrations: 0.5 μM A83-01 (Stemgent), 2 μM BIO (Sigma), 3 μM CHIR99021 (Stemgent), 2 μM Dorsomorphin (Sigma), 8 μM Forskolin (Stemgent), 2 μM IDE-1 (Stemgent), 0.5 μM PD153035 (Sigma), 1 μM PD173074 (Sigma), 1 μM PD0325901 (Sigma), 5 μM Pifithrin-α (Sigma) and 1 μM RepSox (Sigma). All small molecules are reconstituted in DMSO. For PI3K pathway inhibition, LY294002 (Sigma) was used at final concentration of 10 μM.

3iL hESCs = assay: Signaling pathway inhibitor treatment of 3iL hESCs (pluripotency markers, colony numbers); conditions: treated for 10 days, compared to 3iL hESC control, FIG. 4B
Protocol: The hESC line H1 (WA-01, passage 28) was used for this study. For routine culture of hESCs in TeSR1 (Stem cell technologies), cells were cultured feeder free on matrigel (BD). Cell media was changed daily. The hESCs were subcultured with 1 mg/ml Dispase (Stem cell technologies) every 5-7 days. 3iL hESCs culture medium contains 1 μM of PD0325901 (Sigma), 2 μM of BIO (Sigma), 2 μM of Dorsomorphin (Sigma) and 10 ng/ml human LIF (Millipore) in TeSR1. 3iL media are prepared fresh and stored at 4° C. for not more than 2 weeks. For treatment with 3iL conditions, hESCs cultured in TeSR1 was treated with 3iL 48 hrs post-seeding. The cells are subsequently subcultured on mitomycin C inactivated mouse fibroblast. Cells are dissociated to single cells using TrypLE (Life Technologies). […]
For expression analysis, total RNA was extracted using the TRIzol reagent (Invitrogen) with chloroform and precipitated with isopropanol. […] RNA concentration was determined with the NanoDrop 2000 (Thermo Scientific). 500 ng of RNA was used for each reverse transcription reaction using the SuperScript II Kit (Invitrogen) to produce the cDNA for subsequent quantitative assays. Quantitative real-time PCR (qPCR) analysis was performed with the SYBR Green Master Mix (KAPA) using the ABI PRISM 7900 sequence detection system. […] Samples were multiplexed and sequenced single read 76 bp (HiSeq 2000, Illumina). […]

LIF signaling = LIF signaling activity in hESCs (GP130, phosphorylated STAT3, STAT3 responsive genes, NANOG)
Protocol: For expression analysis, total RNA was extracted using the TRIzol reagent (Invitrogen) with chloroform and precipitated with isopropanol. The precipitated RNA was centrifuged at 13000 rpm at 4° C. for 10 min. The RNA pellet was washed with 70% ethanol and subsequently reconstituted with DEPC-treated water (AMBION). DNA contaminants were digested with DNASE I (Ambion) at 37° C. for 30 min. The DNASE I enzyme is heat inactivated at 70° C. for 10 min. RNA concentration was determined with the NanoDrop 2000 (Thermo Scientific). 500 ng of RNA was used for each reverse transcription reaction using the SuperScript II Kit (Invitrogen) to produce the cDNA for subsequent quantitative assays. Quantitative real-time PCR (qPCR) analysis was performed with the SYBR Green Master Mix (KAPA) using the ABI PRISM 7900 sequence detection system. For RNA-Seq library preparation, the total RNA was further purified by column (Purelink RNA Mini kit, Ambion). […] Samples were multiplexed and sequenced single read 76 bp (HiSeq 2000, Illumina).
hESCs were lysed with a lysis buffer (50 mM Tris-HCl, pH 8.0, 150 mM NaCl, 10 μM ZnCl, 0.5% Nonidet P-40, 5% glycerol) supplemented with protease inhibitor cocktail (Merck). Protein concentration was measured with a Bradford assay kit (Bio-Rad). […] After washing with PBST, signals were detected using the Western Blotting Luminol Reagents (Santa Cruz).

| Compound | Gene expression levels of pluripotency markers NANOG and POU5F1 (hESCs) | Expression of NANOG and POU5F1 (hESCs) | other results |
| --- | --- | --- | --- |
| Cc1cccc(-c2nn(C(=S)Nc3ccccc3)cc2-c2ccnc3ccccc23)n1 [A83-01] | downregulation |  | Pluripotency markers NANOG, OCT4 and TRA-1-60 in 3iL hESCs (3iL hESCs): loss of pluripotency markers |
| O=C1Nc2cc(Br)ccc2/C1=C1/Nc2ccccc2/C1=N\O [BIO, 6-bromoindirubin-3′-oxime] | downregulation | downregulated | Expression level of lineage markers (hESCs): stronger upregulation of T and GATA6 |
| c1cc(-c2cnn3cc(-c4ccc(OCCN5CCCCC5)cc4)cnc23)ccn1 [DOR, 6-[4-(2-Piperidin-1-ylethoxy)phenyl]-3-pyridin-4-ylpyrazolo[1,5-a]pyrimidine] |  | remains in a comparable range |  |
| O=C(NOC[C@H](O)CO)c1ccc(F)c(F)c1Nc1ccc(I)cc1F [PD03] |  | remains in a comparable range | Expression level of lineage markers (hESCs): increase in the PAX6 transcript |
| CCN(CC)CCCCNc1ncc2cc(-c3cc(OC)cc(OC)c3)c(NC(=O)NC(C)(C)C)nc2n1 [PD173074] |  |  | Pluripotency markers NANOG, OCT4 and TRA-1-60 in 3iL hESCs (3iL hESCs): loss of pluripotency markers |
| Cc1cccc(-c2[nH]ncc2-c2ccc3ncccc3n2)n1 [RepSOX] | downregulation |  |  |
| LIF: leukemia inhibitory factor, human recombinant |  |  | NANOG expression levels (LIF signaling; increasing amount of LIF under 3i treatment, 5 days, FIG. 4A): increased with the addition of LIF in a dosage dependent manner; STAT3 phosphorylation (LIF signaling; whole cell extracts, Western blot, FIG. 3H): weakly activates |
